Measurements from paper PMC2151567 (The Journal of General Physiology, 2006).

Target: mouse BK channel (mSlo) (Mus musculus, UniProt Q08460)
Format: cell-based

mouse BK channel (mSlo), sequence (Q08460 whole entry): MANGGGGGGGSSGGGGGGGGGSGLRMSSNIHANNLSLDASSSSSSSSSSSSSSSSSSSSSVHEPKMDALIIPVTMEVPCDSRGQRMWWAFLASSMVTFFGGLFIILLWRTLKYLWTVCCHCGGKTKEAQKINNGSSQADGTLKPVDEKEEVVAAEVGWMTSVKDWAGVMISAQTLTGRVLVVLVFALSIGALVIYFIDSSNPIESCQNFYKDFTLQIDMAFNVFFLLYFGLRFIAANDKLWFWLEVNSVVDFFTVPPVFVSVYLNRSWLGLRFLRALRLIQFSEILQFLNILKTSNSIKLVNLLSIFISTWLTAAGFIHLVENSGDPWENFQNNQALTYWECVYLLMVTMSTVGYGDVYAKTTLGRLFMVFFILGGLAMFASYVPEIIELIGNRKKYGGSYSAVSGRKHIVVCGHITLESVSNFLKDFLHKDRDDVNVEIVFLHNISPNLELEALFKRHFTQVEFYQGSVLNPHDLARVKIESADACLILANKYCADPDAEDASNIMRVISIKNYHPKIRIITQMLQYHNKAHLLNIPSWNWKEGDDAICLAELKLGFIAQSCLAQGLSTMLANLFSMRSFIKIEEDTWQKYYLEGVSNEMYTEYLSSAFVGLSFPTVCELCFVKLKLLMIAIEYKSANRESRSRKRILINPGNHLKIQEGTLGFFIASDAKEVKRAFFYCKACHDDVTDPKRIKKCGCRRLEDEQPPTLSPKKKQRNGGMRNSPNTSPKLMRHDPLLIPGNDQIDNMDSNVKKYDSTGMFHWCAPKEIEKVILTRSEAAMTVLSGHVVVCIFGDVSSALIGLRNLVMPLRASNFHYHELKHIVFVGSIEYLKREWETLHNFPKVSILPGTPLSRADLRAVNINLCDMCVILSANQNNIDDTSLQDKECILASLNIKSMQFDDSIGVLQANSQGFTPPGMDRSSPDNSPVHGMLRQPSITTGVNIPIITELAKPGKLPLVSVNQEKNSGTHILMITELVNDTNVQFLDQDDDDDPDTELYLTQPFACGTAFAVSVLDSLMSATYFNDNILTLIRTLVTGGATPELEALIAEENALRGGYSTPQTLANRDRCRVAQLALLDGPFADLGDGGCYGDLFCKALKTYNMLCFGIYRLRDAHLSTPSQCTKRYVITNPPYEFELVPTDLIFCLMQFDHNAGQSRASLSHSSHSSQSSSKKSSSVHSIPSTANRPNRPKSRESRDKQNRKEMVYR

CCCC[N+](CCCC)(CCCC)CCCC [TBA, tetrabutylammonium]
Kd: 628 µM
